Measured values from patent publication US9624249B2, “Nucleoside kinase bypass compositions and methods” (Merck Sharp & Dohme Corp., priority 2013, dated 2017).
Where two headings read alike, the source gives them in different places.

Tests used:
HIV-1 (H9IIIB virus) = experiment: Viking assay: multiple round HIV-1 infection assay in MT4-GFP cells; assay type: cell-based
Experimental: Assessing Antiviral Potency in a Multiple Round HIV-1 Infection Assay
The antiviral activity of the tenofovir prodrugs was assessed in a Viking assay performed as follows. HIV-1 replication was monitored using MT4-gag-GFP clone D3 (hereafter designate MT4-GFP), which are MT-4 cells modified to harbor a GFP reporter gene, the expression of which is dependent on the HIV-1 expressed proteins tat and rev. Productive infection of an MT4-GFP cell with HIV-1 results in GFP expression approximately 24 h post-infection.
MT4-GFP cells were maintained at 37° C./5% CO2/90% relative humidity in RPMI 1640 supplemented with 10% fetal bovine serum, 100 U/ml penicillin/streptomycin, and 400 μg/ml G418 to maintain the reporter gene. For infections, MT4-GFP cells were placed in the same medium lacking G418 and infected overnight with H9IIIB virus at an approximate multiplicity of infection of 0.01 in the same incubation conditions. Cells were then washed and resuspended in either RPMI 1640 containing 10% normal human serum at 1.6×10^5 cells/mL (10% NHS conditions) or in 100% normal human serum at 2×10^5 cells/mL (100% NHS conditions). Compound plates were prepared by dispensing compounds dissolved in DMSO into wells of 384 well poly D lysine-coated plates (0.2 μl/well) using an ECHO acoustic dispenser. Each compound was tested in a 10 point serial 3-fold dilution (typical final concentrations: 4.2 μM-0.21 nM). Controls included no inhibitor (DMSO only) and a combination of three antiviral agents (efavirenz, indinavir, and the integrase strand transfer inhibitor N1-ethyl-N1-((7S,10R)-2-((4-fluorobenzyl)-carbamoyl)-3-hydroxy-7-methoxy-4-oxo-4,6,7,8,9,10-hexahydropyrimido-[1,2-a]azepin-10-yl)-N2,N2-dimethyloxalamide at final concentrations of 4 μM each). Cells were added (50 μL/well) to compound plates and the infected cells were maintained at 37° C./5% CO2/90% relative humidity.
Infected cells were quantified at two time points, ˜48 h and ˜72 h post-infection, by counting the number of green cells in each well using an Acumen eX3 scanner. The increase in the number of green cells over ˜24 h period gives the reproductive ratio, R0, which is typically 5-15 and has been shown experimentally to be in logarithmic phase (data not shown) Inhibition of R0 is calculated for each well, and IC50s determined by non-linear 4-parameter curve fitting.

HCV GT1b = conditions: Cho et al. 2012, Table 1; cited from earlier work
[1] = tested on: hepatitis virus C (HCV) genotype 1a; experiment: HCV subgenomic replicon assay (RHEPTAQ), genotype 1a; assay type: cell-based; conditions: Hepatitis C virus; for EC90: read-out: EC90(1a)
Text: (§1) Table 3 and Table 4 summarize the measured activities of these prodrugs as assessed in a subgenomic replicon assay (RHEPTAQ), against genotypes 1a, 1b and 2a.

[2] = tested on: hepatitis virus C (HCV) genotype 1b; experiment: HCV subgenomic replicon assay (RHEPTAQ), genotype 1b; assay type: cell-based; conditions: Hepatitis C virus; for EC90: read-out: EC90(1b)
Text: as §1

[3] = tested on: hepatitis virus C (HCV) genotype 2a; experiment: HCV subgenomic replicon assay (RHEPTAQ), genotype 2a; assay type: cell-based; conditions: for EC90: read-out: EC90(2a)
Text: as §1

Tox: EdU/CellCount CC50 = assay type: cell-based
[4] = tested on: peripheral blood mononuclear cells (PBMCs); conditions: pbmc; cited from earlier work
[5] = Human immunodeficiency virus 1, read-out: Viking IP
[6] = RHEPTAQ replicon, genotype 1a, read-out: EC50(1a)
[7] = RHEPTAQ replicon, genotype 1b, read-out: EC50(1b)
[8] = Hepatitis C virus, RHEPTAQ replicon, genotype 2a
[9] = Human immunodeficiency virus 1, inhibition of reproductive ratio R0, MT4-GFP cells infected with H9IIIB, serum condition not stated, read-out: Viking IP

With `C[C@H](Cn1cnc2c(N)ncnc21)OCP(=O)(Oc1cccc(Cl)c1)OC1CSSC[C@@H]1OCc1ccccc1` (stereo partly shown) [Entry 6] the IC50 (HIV-1 (H9IIIB virus); [5]) was 1880 nM and the “CTG LD50” value (CTG LD50 (cytotoxicity)) was greater than 8.403 µM.

With `COc1ccc(OP(=O)(CO[C@H](C)Cn2cnc3c(N)ncnc32)OC2CSSC[C@@H]2OCc2ccccc2)cc1` (stereo partly shown) [Entry 11] the IC50 (HIV-1 (H9IIIB virus); [5]) was 2920 nM and the “CTG LD50” value (CTG LD50 (cytotoxicity)) was greater than 42.02 µM.

With `C[C@H](Cn1cnc2c(N)ncnc21)OCP(=O)(Oc1ccccc1Cl)OC1CSSC[C@@H]1OCc1ccccc1` (stereo partly shown) [Entry 7] the IC50 (HIV-1 (H9IIIB virus); [5]) was 1590 nM and the “CTG LD50” value (CTG LD50 (cytotoxicity)) was greater than 8.403 µM.

With `C[C@H](Cn1cnc2c(N)ncnc21)OCP(=O)(Oc1ccc(F)cc1)OC1CSSC[C@@H]1OCc1ccccc1` (stereo partly shown) [Entry 4] the IC50 (HIV-1 (H9IIIB virus); [5]) was 2000 nM and the “CTG LD50” value (CTG LD50 (cytotoxicity)) was greater than 8.403 µM.

For `C[C@@]1(O)[C@H](O)[C@@H](CO)O[C@H]1n1ccc(=O)[nH]c1=O` [2′-C-Me-U, 2′-C-methyl-uridine], the EC50 (HCV GT1b) is given as 15200 nM.

In the case of `COc1cccc(OP(=O)(CO[C@H](C)Cn2cnc3c(N)ncnc32)OC2CSSC[C@@H]2OCc2ccccc2)c1` (stereo partly shown) [Entry 13], the IC50 (HIV-1 (H9IIIB virus); [5]) is reported as 1810 nM and the “CTG LD50” value (CTG LD50 (cytotoxicity)) is reported as greater than 8.403 µM.

Work on `COCCOCCOCCO[C@H]1CSSCC1OP1(=O)OCC2O[C@@H](n3ccc(=O)[nH]c3=O)[C@](C)(O)[C@@H]2O1` (single isomer, unassigned) [drawing 111 isomer 1 and 2] yielded an EC50 [1, 6] of 4000 nM, an EC90 ([1]; RHEPTAQ replicon, genotype 1a) of 9000 nM and an EC50 [2, 7] of 2000 nM. It also gave an EC90 ([2]; RHEPTAQ replicon, genotype 1b) of 8000 nM, an EC90 [3, 8] of 21000 nM and an EC50 ([3]; RHEPTAQ replicon, genotype 2a, read-out: EC50(2a)) of 6000 nM.

With `COCCOCCOCCO[C@H]1CSSCC1OP1(=O)OCC2O[C@@H](n3ccc4c(N)ncnc43)[C@](C)(O)[C@@H]2O1` (stereo partly shown) the EC50 [1, 6] was 1000 nM, the EC90 ([1]; RHEPTAQ replicon, genotype 1a) was 3300 nM and the EC50 [2, 7] was 183 nM. For the same compound, the EC90 ([2]; RHEPTAQ replicon, genotype 1b) was 448 nM, the EC50 ([3]; Hepatitis C virus, RHEPTAQ replicon, genotype 2a, read-out: EC50(2a)) was 249 nM and the EC90 [3, 8] was 896 nM.

With `Cc1cccc(OP(=O)(CO[C@H](C)Cn2cnc3c(N)ncnc32)OC2CSSC[C@@H]2OCc2ccccc2)c1` (stereo partly shown) [Entry 8] the IC50 (HIV-1 (H9IIIB virus); [5]) was 1120 nM and the “CTG LD50” value (CTG LD50 (cytotoxicity)) was greater than 42.02 µM.

In the case of `C[C@H](Cn1cnc2c(N)ncnc21)OCP(=O)(Oc1ccc(Cl)cc1)OC1CSSC[C@@H]1OCc1ccccc1` (stereo partly shown) [Entry 5], the IC50 (HIV-1 (H9IIIB virus); [5]) is reported as 1590 nM and the “CTG LD50” value (CTG LD50 (cytotoxicity)) is reported as greater than 8.403 µM.

Compound `C[C@H](Cn1cnc2c(N)ncnc21)OCP(=O)(O)OC1CSSC[C@H]1OCc1ccccc1` (stereo partly shown) [Entry 16] has an IC50 (HIV-1 (H9IIIB virus); [9]) greater than 8400 nM.

`C[C@@]1(O)[C@@H]2OP(=O)(OC3CSSC[C@@H]3OCc3ccccc3)OCC2O[C@H]1n1ccc(=O)[nH]c1=O` (single isomer, unassigned) [drawing 112] gave an EC50 ([1]; Table 4, genotype 1a, read-out: Replicon: EC50 (1a)) of 70 nM, an EC50 ([2]; Table 4, genotype 1b, read-out: Replicon: EC50 (1b)) of 110 nM and an EC50 ([3]; Hepatitis C virus, Table 4, genotype 2a, read-out: Replicon: EC50 (2a)) of 90 nM. It also gave a CC50 (Tox: EdU/CellCount CC50; CellCount readout, read-out: Tox: CellCount CC50) of 8500 nM and a CC50 (Tox: EdU/CellCount CC50; EdU readout, read-out: Tox: EdU CC50) of 4100 nM.

In the case of `C[C@H](Cn1cnc2c(N)ncnc21)OCP(=O)(O)OC1CSSC[C@@H]1OCc1ccccc1` (stereo partly shown) [Entry 15], the IC50 (HIV-1 (H9IIIB virus); [9]) is reported as greater than 8400 nM.

In the case of `CC(Cn1cnc2c(N)ncnc21)OCP(=O)(O)OP(=O)(O)OP(=O)(O)O` (stereo in doubt) [tenofovir diphosphate], the “half-life in peripheral blood mononuclear cells (PBMCs)” value [4] is given as greater than 100 h.

For `Cc1ccc(OP(=O)(CO[C@H](C)Cn2cnc3c(N)ncnc32)OC2CSSC[C@@H]2OCc2ccccc2)cc1` (stereo partly shown) [Entry 9], the IC50 (HIV-1 (H9IIIB virus); [5]) was 1640 nM and the “CTG LD50” value (CTG LD50 (cytotoxicity)) was greater than 42.02 µM.
